# Results: patent US9603896B2, “Peptide compounds and methods of production and use thereof” (priority 2012, dated 2017)
# Read-outs that look alike come from different tables or passages of the source. Square brackets hold non-standard residues; d marks the D form. Peptide text beside a SMILES is read from it. AEEA = NCCOCCOCC(=O)O
# Key:
# [1] = LPS binding, Limulus Amebocyte Lysate (LAL) assay; design: species or system Pseudomonas
# Description: (§1) The well-characterized response of RAW264.7 macrophage cells was used to produce tumor necrosis-factor-alpha (TNF-α) in response to LPS to determine whether the peptides could dampen the release of this cytokine. […] Importantly, pre-treatment (3 hours prior to LPS addition) as well as post-treatment of the RAW264.7 cells (3 hours post LPS addition) with peptide dampened the cytokine release. […] The finding that the novel peptides bind and neutralize the effect of Pseudomonas LPS is of critical importance since this ensures that the novel therapeutic peptide compounds described herein will not only kill the bacteria, but will also neutralize the LPS endotoxin released by the bacteria which plays such an important role in the rapid progression of sepsis.
# (§2) BCC01-5RMP (SEQ ID NO:21), BCC02-5RMP (SEQ ID NO:22), and BCC03-5RMP (SEQ ID NO:23) were tested for their ability to bind lipopolysaccharide (LPS) using the limulus amebocyte lysate method (LAL). […] There was no statistical difference in their ability to bind LPS using the LAL technique. The ability of the peptides to neutralize LPS was assessed by determining their ability to attenuate the release of tumor necrosis factor-alpha (TNF-α) from LPS-stimulated RAW264.7 cells (a mouse macrophage cell line). […] No significant differences were observed between the three peptides to neutralize LPS as measured by cytokine release.
# [2] = tested on: E. coli ATCC® strain 25922™; format: cell-based, Escherichia coli; design: Log reduction of E. coli: dose or concentration left out as unconfirmed; Effects of Peptide Compounds on Escherichia coli ATCC ® 25922 ™: unit not given here; settings: for Effects of Peptide Compounds on Escherichia coli ATCC ® 25922 ™: Table 6, 5 × 10^3 CFU/ml unless italicized = 1 × 10^5 CFU/ml; for Log reduction of E. coli: 25, starting inoculum 1×10^6 CFU/ml, 60 to 180 minute incubation
# Description: The three peptide compounds BCC01-5RMP (SEQ ID NO:21), BCC02-5RMP (SEQ ID NO:22), and BCC03-5RMP (SEQ ID NO:23) were assayed for in vitro bactericidal activity against Pseudomonas aeruginosa, Escherichia coli, Salmonella typhimurium, and Acinetobacter baumannii. […] The CFU remaining at the end of 60 to 180 minute incubation was determined, and the data plotted as a log reduction in CFU/ml.
# Tables 4-6 show the results of various peptides and peptide compounds against P. aeruginosa and E. coli strains. Tables 4 and 5 show the results of an investigation of the effects of peptide or peptide compounds BCC03-5RMP (SEQ ID NO:23), BCC03-MP (SEQ ID NO:24) and BCC03-5R (SEQ ID NO:20) against P. aeruginosa ATCC® strain 27853™ and E. coli ATCC® strain 25922™ (American Type Culture Collection, Manassas, Va.). […] Table 6 compares the activity of several other compounds, including the “5R” versions of BCC01, i.e., SEQ ID NO:18 (which comprises SEQ ID NO:1 with five additional arginines), the “5R” version of BCC02 (i.e., SEQ ID NO:19, which comprises SEQ ID NO:2 with five additional arginines), and BCC03-5RMP (SEQ ID NO:23), and BCC03-MP (SEQ ID NO:24, i.e., without the five additional R residues). The data generally indicate the superiority of BCC03-5RMP (SEQ ID NO:23) against E. coli, and the superiority of the 5R or 5RMP versions of the peptide over the “AEEA only” peptide against P. aeruginosa.
# [3] = tested on: Pseudomonas aeruginosa ATCC® 27853™; format: cell-based; design: Log reduction of Pseudomonas: dose or concentration left out as unconfirmed; settings: for Effects of Peptide Compounds on Pseudomonas aeruginosa ATCC ® 27853 ™: Table 6, 5 × 10^3 CFU/ml unless italicized = 1 × 10^5 CFU/ml; for Log reduction of Pseudomonas: starting inoculum 1×10^6 CFU/ml, 60 to 180 minute incubation
# [4] = tested on: TNF-α release from LPS-stimulated RAW264.7 cells; experiment: LPS neutralization: TNF-α release from LPS-stimulated RAW264.7 cells; format: cell-based, mouse; settings: Pseudomonas LPS
# Description: as §1, §2
# [5] = tested on: P. aeruginosa (ATCC® 27853™); experiment: Pseudomonas keratitis model in the mouse eye; format: in vivo; settings: C57/BL mice, topical, concentrations between 0.25 and 0.75 mg/ml
# Description: A circular wound was created on the mouse cornea by removing the epithelium and infected with 10^5 colony forming units (CFU) of P. aeruginosa (ATCC® 27853™ (American Type Culture Collection, Manassas, Va.)). Infected wounds were treated with saline (0.9% sodium chloride, vehicle control) or saline containing indicated concentrations of peptide every 15 minutes for 2 hours, then every 30 minutes for 3 hours on the first day. Infected wounds were treated twice on the second day and once on the third day. Mice were killed at 48 hours post-infection, and CFU/eye were quantified. The means were plotted and are representative of 5 to 9 mice per group. Mann Whitney test was performed for each group as compared to the saline control group. *P=0.014.
# A circular wound (2 mm) was created on the mouse cornea by removing the epithelium and infecting the wound with 10^5 CFU of P. aeruginosa (ATCC® 27853™ (American Type Culture Collection, Manassas, Va.)). Infected wounds were treated with saline or saline containing indicated concentrations of peptide every 15 minutes for 2 hours, then every 30 minutes for 3 hours on the first day. Infected wounds were treated twice on the second day and once on the third day. Mice were killed at 48 hours post-infection, and the colony forming units per eye (CFU/eye) were quantified. The means are plotted and are representative of 5 to 9 mice per group. Mann Whitney test was performed for each group as compared to the saline control group.
# For FIGS. 15-17, in vivo bactericidal activity of the peptides was also investigated using the standard Pseudomonas keratitis model in the mouse eye (FIGS. 15-17). Peptides 120-146QR-5RMP (SEQ ID NO:32), 120-146WH (SEQ ID NO:31), and 120-146WR (SEQ ID NO: 30) were applied topically at doses of 2, 5, 10, and 20 mg/ml to the wounded cornea that had been infected with 10^5 CFU of Pseudomonas aeruginosa. The efficacies of the peptides were compared to treatment with the vehicle control. Mice were euthanized at 48 hours post infection, and the CFU/eye were quantified.
# [6] = tested on: Pseudomonas clinical isolate B64; experiment: BIOSCREEN C™ growth assay, antibiotic and peptide combinations; format: cell-based, Pseudomonas aeruginosa
# Description: Cefotaxime (Cefo) and peptide combinations included a constant amount of Cefotaxime (2.81 μg/ml) with suboptimal amounts of peptide (0, 0.34, 1.01, and 3.04 μg/ml).
# The peptide and antibiotics were set up in the wells of the microtiter plate at starting ratios of MIC equivalents of antibiotic:peptide at 3:1, 1:1, and 1:3. They were serially diluted to concentrations well below suboptimal/sublethal levels of the antibiotic and peptide. The organism was added (1×10^5 CFU/well), the BIOSCREEN C™ assay (Growth Systems USA, Piscataway, N.J.) was performed, and data was collected over 24 hours.
smiles,measurement,setting,value
CC[C@H](C)[C@H](NC(=O)[C@H](CC(C)C)NC(=O)[C@H](C)NC(=O)CNC(=O)CNC(=O)[C@H](CS)NC(=O)[C@H](Cc1ccccc1)NC(=O)[C@H](Cc1c[nH]cn1)NC(=O)[C@H](CCCNC(=N)N)NC(=O)CNC(=O)[C@H](CCC(N)=O)NC(=O)[C@H](CC(N)=O)NC(=O)[C@H](CCCNC(=N)N)NC(=O)[C@H](CCCNC(=N)N)NC(=O)[C@H](CCCNC(=N)N)NC(=O)[C@H](CCCNC(=N)N)NC(=O)COCCOCCNC(=O)COCCOCCN)C(=O)N[C@@H](Cc1c[nH]cn1)C(=O)N[C@@H](C)C(=O)N[C@@H](CCCNC(=N)N)C(=O)N[C@@H](Cc1ccccc1)C(=O)N[C@H](C(=O)N[C@@H](CCSC)C(=O)N[C@H](C(=O)N[C@@H](C)C(=O)N[C@@H](C)C(=O)N[C@@H](CO)C(=O)N[C@@H](CO)C(=O)N[C@@H](Cc1ccccc1)C(=O)N[C@@H](CCC(N)=O)C(=O)N[C@@H](CCCNC(=N)N)C(=O)O)[C@@H](C)O)C(C)C [BCC03-5RMP] (H-[AEEA][AEEA]RRRRNQGRHFCGGALIHARFVMTAASSFQR-OH; N-terminus assumed),binding of Pseudomonas LPS,[1],bound Pseudomonas LPS
same,Effects of Peptide Compounds on Escherichia coli ATCC ® 25922 ™,[2]; 0.78 μg/ml,12.3
same,Effects of Peptide Compounds on Escherichia coli ATCC ® 25922 ™,[2]; 1.56 μg/ml,23.0
same,Effects of Peptide Compounds on Escherichia coli ATCC ® 25922 ™,[2]; 3.125 μg/ml,32.8
same,Effects of Peptide Compounds on Escherichia coli ATCC ® 25922 ™,[2]; 6.25 μg/ml,78.7
same,Effects of Peptide Compounds on Escherichia coli ATCC ® 25922 ™,[2]; 12.5 μg/ml,99.3
same,Effects of Peptide Compounds on Escherichia coli ATCC ® 25922 ™,[2]; 25 μg/ml,99.7
same,Effects of Peptide Compounds on Escherichia coli ATCC ® 25922 ™,[2]; 50 μg/ml,99.9
same,Effects of Peptide Compounds on Escherichia coli ATCC ® 25922 ™,[2]; 100 μg/ml,99.9
same,Effects of Peptide Compounds on Escherichia coli ATCC ® 25922 ™,[2]; 200 μg/ml,99.9
same,Effects of Peptide Compounds on Pseudomonas aeruginosa ATCC ® 27853 ™,[3]; 0.78 μg/ml,87.4
same,Effects of Peptide Compounds on Pseudomonas aeruginosa ATCC ® 27853 ™,[3]; 1.56 μg/ml,96.6
same,Effects of Peptide Compounds on Pseudomonas aeruginosa ATCC ® 27853 ™,[3]; 3.125 μg/ml,98.4
same,Effects of Peptide Compounds on Pseudomonas aeruginosa ATCC ® 27853 ™,[3]; 6.25 μg/ml,99.8
same,Effects of Peptide Compounds on Pseudomonas aeruginosa ATCC ® 27853 ™,[3]; 12.5 μg/ml,99.9
same,Effects of Peptide Compounds on Pseudomonas aeruginosa ATCC ® 27853 ™,[3]; 25 μg/ml,100.0
same,Effects of Peptide Compounds on Pseudomonas aeruginosa ATCC ® 27853 ™,[3]; 50 μg/ml,100.0
same,Effects of Peptide Compounds on Pseudomonas aeruginosa ATCC ® 27853 ™,[3]; 100 μg/ml,100.0
same,Effects of Peptide Compounds on Pseudomonas aeruginosa ATCC ® 27853 ™,[3]; 200 μg/ml,100.0
same,neutralization of LPS: release of TNF-α,[4],attenuate the release of TNF-α
CC[C@H](C)[C@H](NC(=O)[C@H](CC(C)C)NC(=O)[C@H](C)NC(=O)CNC(=O)CNC(=O)[C@H](CO)NC(=O)[C@H](Cc1ccccc1)NC(=O)[C@H](Cc1c[nH]cn1)NC(=O)[C@H](CCCNC(=N)N)NC(=O)CNC(=O)[C@H](CCC(N)=O)NC(=O)[C@H](CC(N)=O)NC(=O)[C@H](CCCNC(=N)N)NC(=O)[C@H](CCCNC(=N)N)NC(=O)[C@H](CCCNC(=N)N)NC(=O)[C@H](CCCNC(=N)N)NC(=O)COCCOCCNC(=O)COCCOCCN)C(=O)N[C@@H](Cc1c[nH]cn1)C(=O)N[C@@H](C)C(=O)N[C@@H](CCCNC(=N)N)C(=O)N[C@@H](Cc1ccccc1)C(=O)N[C@H](C(=O)N[C@@H](CCSC)C(=O)N[C@H](C(=O)N[C@@H](C)C(=O)N[C@@H](C)C(=O)N[C@@H](CO)C(=O)N[C@@H](CS)C(=O)N[C@@H](Cc1ccccc1)C(=O)N[C@@H](CCC(N)=O)C(=O)N[C@@H](CCCNC(=N)N)C(=O)O)[C@@H](C)O)C(C)C [BCC02-5RMP] (H-[AEEA][AEEA]RRRRNQGRHFSGGALIHARFVMTAASCFQR-OH),binding of Pseudomonas LPS,[1],bound Pseudomonas LPS
same,bacteria in the eye (CFU/eye) at 48 hours post-infection,[5],effectively killed all bacteria and cured the infection
same,Log reduction of E. coli,[2],4
same,Log reduction of Pseudomonas,[3],4
same,neutralization of LPS: release of TNF-α,[4],attenuate the release of TNF-α
same,sensitivity of the bacterium to Cefotaxime on addition of peptide,"[6]; 3.04 μg/ml of peptide plus Cefotaxime 2.81 μg/ml, P=0.0143",now sensitive
same,effect of peptide on the killing effect of Cefotaxime,[6]; 0.34 and 1.0 μg/ml of peptide plus Cefotaxime 2.81 μg/ml,no statistical effect
CC[C@H](C)[C@H](NC(=O)[C@H](CC(C)C)NC(=O)[C@H](C)NC(=O)CNC(=O)CNC(=O)[C@H](CS)NC(=O)[C@H](Cc1ccccc1)NC(=O)[C@H](Cc1c[nH]cn1)NC(=O)[C@H](CCCNC(=N)N)NC(=O)CNC(=O)[C@H](CCC(N)=O)NC(=O)[C@H](CC(N)=O)NC(=O)[C@H](CCCNC(=N)N)NC(=O)[C@H](CCCNC(=N)N)NC(=O)[C@H](CCCNC(=N)N)NC(=O)[C@H](CCCNC(=N)N)NC(=O)COCCOCCNC(=O)COCCOCCN)C(=O)N[C@@H](Cc1c[nH]cn1)C(=O)N[C@@H](C)C(=O)N[C@@H](CCCNC(=N)N)C(=O)N[C@@H](Cc1ccccc1)C(=O)N[C@H](C(=O)N[C@@H](CCSC)C(=O)N[C@H](C(=O)N[C@@H](C)C(=O)N[C@@H](C)C(=O)N[C@@H](CO)C(=O)N[C@@H](CS)C(=O)N[C@@H](Cc1ccccc1)C(=O)N[C@@H](CCC(N)=O)C(=O)N[C@@H](CCCNC(=N)N)C(=O)O)[C@@H](C)O)C(C)C [BCC01-5RMP] (H-[AEEA][AEEA]RRRRNQGRHFCGGALIHARFVMTAASCFQR-OH),binding of Pseudomonas LPS,[1],bound Pseudomonas LPS
same,Log reduction of E. coli,[2],3
same,Log reduction of Pseudomonas,[3],5
same,neutralization of LPS: release of TNF-α,[4],attenuate the release of TNF-α
